For 18 compounds, MIC results are on record in patent US20160090383A1, “ANTIBACTERIAL PHTHALIDE DERIVATIVES” (priority 2013, published 2016).

Common to all, as to test: Bacterial growth minimal inhibitory concentration (microdilution, CLSI M7-A7)
What all share (assay type): cell-based

Assay [1] concerns Moraxella catarrhalis A894. The conditions noted are these: Moraxella catarrhalis, A894; quinolone-sensitive strain; cation-adjusted Mueller-Hinton Broth. Here is the method: (§1) Minimal Inhibitory Concentrations (MICs; […]) were determined in cation-adjusted Mueller-Hinton Broth by a microdilution method following the description given in “Methods for Dilution Antimicrobial Susceptibility Tests for Bacteria that Grow Aerobically”, Approved standard, 7th ed., Clinical and Laboratory Standards Institute (CLSI) Document M7-A7, Wayne, Pa., USA, 2006.

The test system of assay [2] is Enterococcus faecium A949. Conditions: Enterococcus faecium, A949; multiply-resistant strain (quinolone-resistant and vancomycin-resistant); cation-adjusted Mueller-Hinton Broth; read-out: MIC for E. faecium A949. The protocol: as §1
Assay [3] deals with Staphylococcus aureus A798. The conditions noted are these: Staphylococcus aureus, A798; multiply-resistant strain (quinolone-resistant and methicillin-resistant); cation-adjusted Mueller-Hinton Broth; read-out: MIC for S. aureus A798. The protocol:
as §1

The test system of assay [4] is Streptococcus pneumonia ATTC49619. The conditions noted are these: Streptococcus pneumoniae, ATTC49619; quinolone-sensitive strain; cation-adjusted Mueller-Hinton Broth; read-out: MIC for S. pneumonia ATTC49619. Here is the method: as §1
Assay [5] concerns Staphylococcus aureus ATCC29213. The conditions noted are these: Staphylococcus aureus, ATCC29213; methicillin-sensitive and quinolone-sensitive strain; cation-adjusted Mueller-Hinton Broth; read-out: MIC for S. aureus ATCC29213. Here is the method: as §1

SMILES strings stand for the structures. In brackets after ≈: the same amount, converted by molar mass.

On to `COc1ccc2ncc(=O)n(CCNCCC3OC(=O)c4cc(-c5ccccc5)ccc43)c2n1` (racemic) [Example 2, rac-6-Methoxy-4-{2-[2-(3-oxo-5-phenyl-1,3-dihydro-isobenzofuran-1-yl)-ethylamino]-ethyl}-4H-pyrido[2,3-b]pyrazin-3-one], for which the MIC in assay [1] came to 0.5 µg/mL (≈ 1.1 µM); in assay [2], 0.25 µg/mL (≈ 0.548 µM); in assay [3] it was 0.125 µg/mL (≈ 0.274 µM); in assay [4], 0.5 µg/mL (≈ 1.1 µM); in assay [5], 0.031 µg/mL (≈ 0.0679 µM).

Turning to `O=C1OC(CCNCCn2c(=O)ccc3ccc(F)cc32)c2ccc(-c3ccccc3)cc21` (racemic) [Example 3, rac-7-Fluoro-1-{2-[2-(3-oxo-5-phenyl-1,3-dihydro-isobenzofuran-1-yl)-ethylamino]-ethyl}-1H-quinolin-2-one], the MIC is 1 µg/mL (≈ 2.26 µM) in assay [1]; 0.25 µg/mL (≈ 0.565 µM) in assay [2]; 0.125 µg/mL (≈ 0.282 µM) in assay [3]; 0.125 µg/mL (≈ 0.282 µM) in assay [4]; 0.031 µg/mL (≈ 0.0701 µM) in assay [5].

On to `O=C(CC1OC(=O)c2cc(-c3ccccc3)ccc21)NCCn1c(=O)ccc2ccc(F)cc21` (racemic) [Example 4, rac-N-[2-(7-Fluoro-2-oxo-2H-quinolin-1-yl)-ethyl]-2-(3-oxo-5-phenyl-1,3-dihydro-isobenzofuran-1-yl)-acetamide], for which the MIC in assay [1] amounted to 8 µg/mL (≈ 17.5 µM); in assay [2], 0.5 µg/mL (≈ 1.1 µM); in assay [3], 0.5 µg/mL (≈ 1.1 µM); in assay [4] it was 1 µg/mL (≈ 2.19 µM); in assay [5], 0.125 µg/mL (≈ 0.274 µM).

Regarding `O=C(CC1OC(=O)c2cc(-c3cccc(F)c3)ccc21)NCCn1c(=O)ccc2ccc(F)cc21` (racemic) [Example 5, rac-N-[2-(7-Fluoro-2-oxo-2H-quinolin-1-yl)-ethyl]-2-[5-(3-fluoro-phenyl)-3-oxo-1,3-dihydro-isobenzofuran-1-yl]-acetamide], the MIC in assay [1] was 1 µg/mL (≈ 2.11 µM); in assay [2], 0.25 µg/mL (≈ 0.527 µM); in assay [3] it was 0.25 µg/mL (≈ 0.527 µM); in assay [4], 0.5 µg/mL (≈ 1.05 µM); in assay [5], 0.063 µg/mL (≈ 0.133 µM).

For the compound `O=C(CC1OC(=O)c2cc(-c3ccccc3F)ccc21)NCCn1c(=O)ccc2ccc(F)cc21` (racemic) [Example 6, rac-N-[2-(7-Fluoro-2-oxo-2H-quinolin-1-yl)-ethyl]-2-[5-(2-fluoro-phenyl)-3-oxo-1,3-dihydro-isobenzofuran-1-yl]acetamide], the MIC in assay [1] is 2 µg/mL (≈ 4.22 µM); in assay [2], 0.25 µg/mL (≈ 0.527 µM); in assay [3] it was 0.25 µg/mL (≈ 0.527 µM); in assay [4], 0.5 µg/mL (≈ 1.05 µM); in assay [5], 0.063 µg/mL (≈ 0.133 µM).

For `O=C(CC1OC(=O)c2cc(-c3cccc(F)c3F)ccc21)NCCn1c(=O)ccc2ccc(F)cc21` (racemic) [Example 8, rac-2-[5-(2,3-Difluoro-phenyl)-3-oxo-1,3-dihydro-isobenzofuran-1-yl]-N-[2-(7-fluoro-2-oxo-2H-quinolin-1-yl)-ethyl]-acetamide], the MIC in assay [1] came to 0.5 µg/mL (≈ 1.02 µM); in assay [2] it was 0.25 µg/mL (≈ 0.508 µM); in assay [3], 0.25 µg/mL (≈ 0.508 µM); in assay [4], 0.5 µg/mL (≈ 1.02 µM); in assay [5], 0.031 µg/mL (≈ 0.063 µM).

Turning to `O=C(CC1OC(=O)c2cc(-c3cc(F)ccc3F)ccc21)NCCn1c(=O)ccc2ccc(F)cc21` (racemic) [Example 9, rac-2-[5-(2,5-Difluoro-phenyl)-3-oxo-1,3-dihydro-isobenzofuran-1-yl]-N-[2-(7-fluoro-2-oxo-2H-quinolin-1-yl)-ethyl]-acetamide], the MIC in assay [1] was found to be 0.125 µg/mL (≈ 0.254 µM); in assay [2], 0.25 µg/mL (≈ 0.508 µM); in assay [3], 0.125 µg/mL (≈ 0.254 µM); in assay [4] it was 0.25 µg/mL (≈ 0.508 µM); in assay [5], 0.031 µg/mL (≈ 0.063 µM).

As for `O=C(CC1OC(=O)c2cc(-c3ccc(F)c(F)c3)ccc21)NCCn1c(=O)ccc2ccc(F)cc21` (racemic) [Example 10, rac-2-[5-(3,4-Difluoro-phenyl)-3-oxo-1,3-dihydro-isobenzofuran-1-yl]-N-[2-(7-fluoro-2-oxo-2H-quinolin-1-yl)-ethyl]-acetamide], the MIC in assay [1] is over 8 µg/mL; in assay [2], 2 µg/mL (≈ 4.06 µM); in assay [3], over 8 µg/mL; in assay [4] it was 4 µg/mL (≈ 8.12 µM); in assay [5], 0.5 µg/mL (≈ 1.02 µM).

For the compound `O=C(CC1OC(=O)c2cc(-c3cc(F)cc(F)c3)ccc21)NCCn1c(=O)ccc2ccc(F)cc21` (racemic) [Example 11, rac-2-[5-(3,5-Difluoro-phenyl)-3-oxo-1,3-dihydro-isobenzofuran-1-yl]-N-[2-(7-fluoro-2-oxo-2H-quinolin-1-yl)-ethyl]-acetamide], the MIC worked out at 0.125 µg/mL (≈ 0.254 µM) in assay [1]; 0.25 µg/mL (≈ 0.508 µM) in assay [2]; 0.25 µg/mL (≈ 0.508 µM) in assay [3]; 0.25 µg/mL (≈ 0.508 µM) in assay [4]; 0.031 µg/mL (≈ 0.063 µM) in assay [5].

Take `O=C(CC1OC(=O)c2cc(C3=CCCC3)ccc21)NCCn1c(=O)ccc2ccc(F)cc21` (racemic) [Example 12, rac-2-(5-Cyclopent-1-enyl-3-oxo-1,3-dihydro-isobenzofuran-1-yl)-N-[2-(7-fluoro-2-oxo-2H-quinolin-1-yl)-ethyl]-acetamide]: the MIC in assay [1] came to 1 µg/mL (≈ 2.24 µM); in assay [2], 0.25 µg/mL (≈ 0.56 µM); in assay [3] it was 0.25 µg/mL (≈ 0.56 µM); in assay [4] it was 2 µg/mL (≈ 4.48 µM); in assay [5], 0.031 µg/mL (≈ 0.0694 µM).

`O=C1OC(C(=O)NCCCn2c(=O)ccc3ccc(F)cc32)c2ccc(-c3ccccc3)cc21` (racemic) [Example 13, rac-3-Oxo-5-phenyl-1,3-dihydro-isobenzofuran-1-carboxylic acid [3-(7-fluoro-2-oxo-2H-quinolin-1-yl)-propyl]-amide]: the MIC is over 8 µg/mL in assay [1]; 0.5 µg/mL (≈ 1.1 µM) in assay [2]; 0.125 µg/mL (≈ 0.274 µM) in assay [3]; 1 µg/mL (≈ 2.19 µM) in assay [4]; 0.063 µg/mL (≈ 0.138 µM) in assay [5].

For `O=C1OC(CCNCCn2c(=O)ccc3ccc(F)cc32)c2ccc(-c3ccc(F)cc3F)cc21` (racemic) [Example 15, rac-1-(2-{2-[5-(2,4-Difluoro-phenyl)-3-oxo-1,3-dihydro-isobenzofuran-1-yl]-ethylamino}-ethyl)-7-fluoro-1H-quinolin-2-one], the MIC turned out to be 4 µg/mL (≈ 8.36 µM) in assay [1]; 0.5 µg/mL (≈ 1.04 µM) in assay [2]; 1 µg/mL (≈ 2.09 µM) in assay [3]; 0.5 µg/mL (≈ 1.04 µM) in assay [4]; 0.25 µg/mL (≈ 0.522 µM) in assay [5].

For the compound `O=C(CC1OC(=O)c2cc(C3=CCCCC3)ccc21)NCCn1c(=O)ccc2ccc(F)cc21` (racemic) [Example 16, rac-2-(5-Cyclohex-1-enyl-3-oxo-1,3-dihydro-isobenzofuran-1-yl)-N-[2-(7-fluoro-2-oxo-2H-quinolin-1-yl)-ethyl]-acetamide], the MIC in assay [1] was 0.5 µg/mL (≈ 1.09 µM); in assay [2] it was 0.25 µg/mL (≈ 0.543 µM); in assay [3], 0.063 µg/mL (≈ 0.137 µM); in assay [4], 0.5 µg/mL (≈ 1.09 µM); in assay [5], at most 0.016 µg/mL.

With `CC(C)=Cc1ccc2c(c1)C(=O)OC2CC(=O)NCCn1c(=O)ccc2ccc(F)cc21` (racemic) [Example 17, rac-N-[2-(7-Fluoro-2-oxo-2H-quinolin-1-yl)-ethyl]-2-[5-(2-methyl-propenyl)-3-oxo-1,3-dihydro-isobenzofuran-1-yl]-acetamide], the minimal inhibitory concentration (MIC) is 0.5 µg/mL (≈ 1.15 µM) in assay [1]; 0.063 µg/mL (≈ 0.145 µM) in assay [2]; at most 0.016 µg/mL in assay [3]; 0.5 µg/mL (≈ 1.15 µM) in assay [4]; at most 0.016 µg/mL in assay [5].

Take `O=C(Cn1c(=O)ccc2ccc(F)cc21)NCCC1OC(=O)c2cc(-c3ccccc3)ccc21` (racemic) [Example 18, rac-2-(7-Fluoro-2-oxo-2H-quinolin-1-yl)-N-[2-(3-oxo-5-phenyl-1,3-dihydro-isobenzofuran-1-yl)-ethyl]-acetamide]: the MIC was over 8 µg/mL in assay [1]; 0.5 µg/mL (≈ 1.1 µM) in assay [2]; 2 µg/mL (≈ 4.38 µM) in assay [3]; 4 µg/mL (≈ 8.76 µM) in assay [4]; 0.25 µg/mL (≈ 0.548 µM) in assay [5].

Regarding `O=C(Cn1c(=O)ccc2ccc(F)cc21)NCCC1OC(=O)c2cc(-c3cc(F)ccc3F)ccc21` (racemic) [Example 19, rac-N-{2-[5-(2,5-Difluoro-phenyl)-3-oxo-1,3-dihydro-isobenzofuran-1-yl]-ethyl}-2-(7-fluoro-2-oxo-2H-quinolin-1-yl)-acetamide], the MIC in assay [1] came to 0.25 µg/mL (≈ 0.508 µM); in assay [2], 0.25 µg/mL (≈ 0.508 µM); in assay [3], 0.125 µg/mL (≈ 0.254 µM); in assay [4], 0.5 µg/mL (≈ 1.02 µM); in assay [5] it was 0.063 µg/mL (≈ 0.128 µM).

As for `O=C1OC(C(=O)NCCCn2c(=O)ccc3ccc(F)cc32)c2ccc(C3=CCCCC3)cc21` (racemic) [Example 21, rac-5-Cyclohex-1-enyl-3-oxo-1,3-dihydro-isobenzofuran-1-carboxylic acid [3-(7-fluoro-2-oxo-2H-quinolin-1-yl)-propyl]-amide], the MIC came to 2 µg/mL (≈ 4.34 µM) in assay [1]; 4 µg/mL (≈ 8.69 µM) in assay [2]; 0.125 µg/mL (≈ 0.271 µM) in assay [3]; 4 µg/mL (≈ 8.69 µM) in assay [4]; 0.125 µg/mL (≈ 0.271 µM) in assay [5].

For the compound `O=C(Cn1c(=O)ccc2ccc(F)cc21)NCCC1OC(=O)c2cc(C3=CCCCC3)ccc21` (racemic) [Example 22, rac-N-[2-(5-Cyclohex-1-enyl-3-oxo-1,3-dihydro-isobenzofuran-1-yl)-ethyl]-2-(7-fluoro-2-oxo-2H-quinolin-1-yl)-acetamide], the MIC worked out at 1 µg/mL (≈ 2.17 µM) in assay [1]; 0.5 µg/mL (≈ 1.09 µM) in assay [2]; 0.125 µg/mL (≈ 0.271 µM) in assay [3]; 1 µg/mL (≈ 2.17 µM) in assay [4]; 0.031 µg/mL (≈ 0.0673 µM) in assay [5].
